IC50 data for 19 molecules are collected here from US12528818B2, “Compositions and methods for inhibition of RAS” (Leidos Biomedical Research, Inc., priority 2021, dated 2026).

Some results are limits rather than exact numbers.

The assay concerns pERK in NCI-H358 cells. Put plainly: Cell-based pERK HTRF assay (pERK inhibition in H358 cells). The following applies: Homo sapiens, NCI-H358, 0.5 h, pERK inhibition IC50, NCI-H358 cells, 30 min incubation; read-out: PERK in H358 cell. For orientation: TR-FRET usually uses a lanthanide donor and a delayed reading to cut background.
As to `C=CC(=O)N1CC[C@@H](N(C)c2nc(OCC3(CN4CC[C@@H](F)C4)CC3)nc3c(F)c(-c4ccc(F)c5sc(N)nc45)c(C(F)(F)F)cc23)C1` [Compound 288], the IC50 was < 100 nM. With `C=CC(=O)N1CCCC(Nc2nc(OC[C@@H]3CCCN3C)nc3c(F)c(-c4ccc(F)c5sc(N)nc45)c(Cl)cc23)C1` (stereo partly shown) [Compound 54] the figure was 100 to 1000 nM.

For `CC#CC(=O)N1CCN(c2nc(OC[C@]34CCCN3C[C@H](F)C4)nc3c(F)c(-c4ccc(F)c5sc(N)nc45)c(C(F)(F)F)cc23)CC1` [Compound 149], the IC50 was < 100 nM. With `C=CC(=O)N1C[C@H](N(C)c2nc(OC[C@@]34CCCN3C[C@H](F)C4)nc3c(F)c(-c4ccc(F)c5sc(N)nc45)c(C(F)(F)F)cc23)C(C)(C)C1` [Compound 301] the figure was < 100 nM; with `C=CC(=O)N1[C@H](C)CN(c2nc(OC[C@@]34CCCN3C[C@@H](F)C4)nc3c(F)c(-c4ccc(F)c5sc(N)nc45)c(C(F)(F)F)cc23)C[C@@H]1C` [Compound 224], < 100 nM; with `C=CC(=O)N1CC[C@H](N(C)c2nc(OC[C@@]34CCCN3C[C@H](F)C4)nc3c(F)c(-c4ccc(F)c5sc(N)nc45)c(C(F)(F)F)cc23)C1` [Compound 188], 100 to 1000 nM. Regarding `C=CC(=O)N1CCN(c2nc(OCC34CCCN3CC(C)(C)C4)nc3c(F)c(-c4ccc(F)c5sc(N)nc45)c(C(F)(F)F)cc23)CC1` (stereo not shown) [Compound 171, 1-(4-(7-(2-amino-7-fluorobenzo[d]thiazol-4-yl)-2-((2,2-dimethyltetrahydro-1H-pyrrolizin-7a(5H)-yl)methoxy)-8-fluoro-6-(trifluoromethyl)quinazolin-4-yl)piperazin-1-yl)prop-2-en-1-one], the IC50 was < 100 nM. Turning to `C=CC(=O)N1C[C@H](C)N(c2nc(OC[C@@]34CCCN3C[C@H](F)C4)nc3c(F)c(-c4ccc(F)c5sc(N)c(C#N)c45)c(C#N)cc23)C[C@H]1C` [Compound 324, 4-((2S,5R)-4-acryloyl-2,5-dimethylpiperazin-1-yl)-7-(2-amino-3-cyano-7-fluorobenzo[b]thiophen-4-yl)-8-fluoro-2-(((2R,7aS)-2-fluorotetrahydro-1H-pyrrolizin-7a(5H)-yl)methoxy)quinazoline-6-carbonitrile], the IC50 is < 100 nM. The value for `C=CC(=O)N1C[C@H](C)N(c2nc(OC[C@]34CCCN3C[C@H](F)C4)nc3c(F)c(-c4ccc(F)c5sc(N)nc45)c(C(F)(F)F)cc23)C[C@H]1C` [Compound 204, 1-((2R,5S)-4-(7-(2-amino-7-fluorobenzo[d]thiazol-4-yl)-8-fluoro-2-(((2R,7aR)-2-fluorotetrahydro-1H-pyrrolizin-7a(5H)-yl)methoxy)-6-(trifluoromethyl)quinazolin-4-yl)-2,5-dimethylpiperazin-1-yl)prop-2-en-1-one] was < 100 nM; that for `C=CC(=O)N1CCC(N(C)c2nc(OC[C@@H]3C[C@@H](F)CN3C)nc3c(F)c(-c4ccc(F)c5sc(N)c(C#N)c45)ccc23)[C@H]1COC` (stereo partly shown) [Compound 423] was < 100 nM. As to `C=CC(=O)N1CC(Nc2nc(OCC34CCCN3CCC4)nc3c(F)c(-c4ccc(F)c5sc(N)nc45)c(C(F)(F)F)cc23)C1` [Compound 79], the IC50 was > 1000 nM. The value for `C=CC(=O)N1C[C@@H](Nc2nc(OCC34CCCN3CCC4)nc3c(F)c(-c4ccc(F)c5sc(N)nc45)c(Cl)cc23)[C@H]1C` [Compound 197] was > 1000 nM; that for `C=CC(=O)N1CCC(N(C)c2nc(OC[C@@H]3CCCN3C)nc3c(F)c(-c4ccc(F)c5sc(N)c(C#N)c45)ccc23)[C@H]1COC` (stereo partly shown) [Compound 432] was 100 to 1000 nM. The value for `C=CC(=O)N1CCC(N(CC)c2nc(OC[C@@H]3CCCN3C)nc3cc(-c4ccc(F)c5sc(N)c(C#N)c45)c(C#N)cc23)[C@H]1COC` (stereo partly shown) [Compound 470] was 100 to 1000 nM; that for `C=CC(=O)N1CC[C@@H](N(C)c2nc(OC[C@@]34CCCN3C[C@H](F)C4)nc3cc(-c4ccc(F)c5sc(N)c(C#N)c45)c(F)cc23)[C@H]1C` [Compound 390, 4-(4-((1-acryloyl-2-methylpyrrolidin-3-yl)(methyl)amino)-6-fluoro-2-(((2R,7aS)-2-fluorotetrahydro-1H-pyrrolizin-7a(5H)-yl)methoxy)quinazolin-7-yl)-2-amino-7-fluorobenzo[b]thiophene-3-carbonitrile] was < 100 nM; that for `C=CC(=O)N1CC[C@@H](N(C)c2nc(OCC34CCCN3CCC4)nc3c(F)c(-c4c(O)cccc4F)c(C(F)(F)F)cc23)C1` [Compound 227] was > 1000 nM.

As for `C=CC(=O)N1C[C@@H](F)[C@@H](N(C)c2nc(OC[C@@]34CCCN3C[C@H](F)C4)nc3c(F)c(-c4ccc(F)c5sc(N)c(C#N)c45)c(C(F)(F)F)cc23)C1` [Compound 316], the IC50 is < 100 nM. With `C=CC(=O)N1CCC(N(C)c2nc(OC[C@@H]3CCCN3CC)nc3c(F)c(-c4ccc(F)c5sc(N)c(C#N)c45)c(Cl)cc23)[C@H]1C` (stereo partly shown) [Compound 464] the figure was < 100 nM; with `C=CC(=O)N1CC[C@@H](N(C)c2nc(OC)nc3c(F)c(-c4ccc(F)c5sc(N)c(C#N)c45)c(C(F)(F)F)cc23)C1` [Compound 384], < 100 nM.
